Assay results as given in patent US12274684B2, “Treatment of vasculopathy with prostacyclin and mesenchymal stem cells” (United Therapeutics Corporation, priority 2013, dated 2025).

Columns and labels:
human bone marrow MSC [1] = experiment: Bead-based immunoassay (Luminex) of cytokines in MSC culture supernatant; assay type: cell-based; conditions: 250 μg/mL, 24 h
Procedure: Human bone marrow MSC were expanded and seeded into six (6) T225 flasks using standard growth medium (Table 1). At 95-99% confluency, cells were thoroughly washed with PBS. Three (3) flasks were replenished with basal media containing 250 μg/mL treprostinil, (+)Tre, and the remaining three (3) flasks were replenished with unsupplemented basal media, (−)Tre. After 24 hours of culture, representative images were captured from (+) Tre and (−) Tre cultures. Conditioned media was collected from each replicate, divided into two samples of appropriate volumes, and analyzed separately for: 1) secreted proteins (Myriad RBM InflammationMAP® 1.0) and 2) exosome RNA content. Cells were lysed directly from culture flasks, processed for total RNA isolation, and analyzed for gene expression by microarray (Illumina Human HT12 Expression BeadChip). Bead-based immunoassays (Luminex) was performed to assess the concentration of 46 cytokines in cell culture supernatants (Myriad RBM Human InflammationMAP® 1.0). Of the 46 evaluated, 6 were differentially secreted in treprostinil-treated and -untreated MSC cultures (see Table 6, n=3 per group). Asterisks indicate statistical significance between the groups based on a Student's T Test (*p<0.001, or **p<0.0001).

human bone marrow MSC [2] = experiment: RNA content of MSC-derived exosomes by qRT-PCR; assay type: cell-based; conditions: 250 μg/mL
Procedure: After 24 hours of culture, representative images were captured from (+) Tre and (−) Tre cultures. Conditioned media was collected from each replicate, divided into two samples of appropriate volumes, and analyzed separately for: 1) secreted proteins (Myriad RBM InflammationMAP® 1.0) and 2) exosome RNA content. Cells were lysed directly from culture flasks, processed for total RNA isolation, and analyzed for gene expression by microarray (Illumina Human HT12 Expression BeadChip). To characterize the effect of treprostinil on MSC, cells were analyzed by qRT-PCR and microarray to identify changes in gene expression (4). Cell culture supernatant media was assayed for selected inflammatory cytokines by bead-based immunoassays (2). Secreted vesicles were isolated from cell culture supernatant, and assayed for RNA content by qRT-PCR (7). Vesicles were also assayed for size and concentration by tunable resistive pulse sensing, or TRPS (7) (refer to Example 4). Total RNA was extracted from exosomal preparations, and qRT-PCR was performed with the same primer/probe sets used in experiments with the parent cells (refer to FIG. 8). VEGF-A gene transcripts present in MSC-derived exosomes were increased ˜4-fold as a result of treprostinil exposure (FIG. 10).

[3] = 24 h (FIG. 8, lower panel), p<0.05

## CCCCC[C@H](O)CC[C@@H]1[C@H]2Cc3cccc(OCC(=O)O)c3C[C@H]2C[C@H]1O [treprostinil]
Human bone marrow MSC [1]
  IL-6 production, fold more compared to control MSC: ~50 fold
  MCP-1 secretion, fold less than control MSC: 6-7 fold
Human bone marrow MSC [1]; DECREASED vs (−) Treprostinil 2.4 +/− 1.0 pg/ml
  Interleukin-8 (IL-8) secretion: Below detection
Human bone marrow MSC [1]; DECREASED vs (−) Treprostinil 29 +/− 3 ng/ml, p<0.001
  Tissue Inhibitor of Metalloproteinases 1 (TIMP-1) secretion: 12 ± 1 ng/mL
Human bone marrow MSC [1]; DECREASED vs (−) Treprostinil 379 +/− 35 pg/ml, p<0.0001
  Monocyte Chemotactic Protein 1 (MCP-1) secretion: 47 ± 9 pg/mL
Human bone marrow MSC [1]; INCREASED vs (−) Treprostinil 0.70 +/− 0.11 ng/mL
  Ferritin (FRTN) secretion: 0.96 ± 0.01 ng/mL
Human bone marrow MSC [1]; INCREASED vs (−) Treprostinil 62 +/− 6 pg/ml, p<0.0001
  Interleukin-6 (IL-6) secretion: 3580 ± 384 pg/mL
Human bone marrow MSC [1]; INCREASED vs (−) Treprostinil 235 +/− 16 pg/ml, p<0.0001
  Vascular Endothelial Growth Factor (VEGF) secretion: 612 ± 37 pg/mL
Human bone marrow MSC [2]; [3]
  let-7b abundance vs controls: less prevalent
  miR-21 abundance vs controls: more abundant
Human bone marrow MSC [2]; 24 h (FIG. 10)
  VEGF-A gene transcripts in MSC-derived exosomes, fold increase: ~4 fold
Human bone marrow MSC [2]; 24 h (FIG. 10), p<0.05
  miR-21 in MSC-derived exosomes: significantly more abundant
  miR-199-3p in MSC-derived exosomes: significantly more abundant
